Data as given in patent publication US11046699B2, “Pyrazolo-pyrimidin-amino-cycloalkyl compounds and their therapeutic uses” (RAPT THERAPEUTICS, INC., priority 2018, dated 2021).
pIC50: −log10 of the molar value. Read-outs that look alike come from different tables or passages of the source.

Molecular target: GCN2 (Homo sapiens, UniProt Q9P2K8)
Experiment: GCN2 enzymatic endpoint assay: phosphorylation of GFP-eIF2α measured by TR-FRET (Lanthascreen)
Type: biochemical
Method in brief: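 Kinase activity is measured as phosphorylation of GFP-labelled eIF2α (80 nM) with ATP at 2 μM. Incubation runs 90 minutes at room temperature before EDTA quench and terbium-antibody detection.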

[1] = tested as described in Example 77, compound and/or hydrochloride, dihydrochloride or trifluoroacetic acid salt, read-out: IC 50 Activity

Chain of GCN2 (Q9P2K8 whole entry): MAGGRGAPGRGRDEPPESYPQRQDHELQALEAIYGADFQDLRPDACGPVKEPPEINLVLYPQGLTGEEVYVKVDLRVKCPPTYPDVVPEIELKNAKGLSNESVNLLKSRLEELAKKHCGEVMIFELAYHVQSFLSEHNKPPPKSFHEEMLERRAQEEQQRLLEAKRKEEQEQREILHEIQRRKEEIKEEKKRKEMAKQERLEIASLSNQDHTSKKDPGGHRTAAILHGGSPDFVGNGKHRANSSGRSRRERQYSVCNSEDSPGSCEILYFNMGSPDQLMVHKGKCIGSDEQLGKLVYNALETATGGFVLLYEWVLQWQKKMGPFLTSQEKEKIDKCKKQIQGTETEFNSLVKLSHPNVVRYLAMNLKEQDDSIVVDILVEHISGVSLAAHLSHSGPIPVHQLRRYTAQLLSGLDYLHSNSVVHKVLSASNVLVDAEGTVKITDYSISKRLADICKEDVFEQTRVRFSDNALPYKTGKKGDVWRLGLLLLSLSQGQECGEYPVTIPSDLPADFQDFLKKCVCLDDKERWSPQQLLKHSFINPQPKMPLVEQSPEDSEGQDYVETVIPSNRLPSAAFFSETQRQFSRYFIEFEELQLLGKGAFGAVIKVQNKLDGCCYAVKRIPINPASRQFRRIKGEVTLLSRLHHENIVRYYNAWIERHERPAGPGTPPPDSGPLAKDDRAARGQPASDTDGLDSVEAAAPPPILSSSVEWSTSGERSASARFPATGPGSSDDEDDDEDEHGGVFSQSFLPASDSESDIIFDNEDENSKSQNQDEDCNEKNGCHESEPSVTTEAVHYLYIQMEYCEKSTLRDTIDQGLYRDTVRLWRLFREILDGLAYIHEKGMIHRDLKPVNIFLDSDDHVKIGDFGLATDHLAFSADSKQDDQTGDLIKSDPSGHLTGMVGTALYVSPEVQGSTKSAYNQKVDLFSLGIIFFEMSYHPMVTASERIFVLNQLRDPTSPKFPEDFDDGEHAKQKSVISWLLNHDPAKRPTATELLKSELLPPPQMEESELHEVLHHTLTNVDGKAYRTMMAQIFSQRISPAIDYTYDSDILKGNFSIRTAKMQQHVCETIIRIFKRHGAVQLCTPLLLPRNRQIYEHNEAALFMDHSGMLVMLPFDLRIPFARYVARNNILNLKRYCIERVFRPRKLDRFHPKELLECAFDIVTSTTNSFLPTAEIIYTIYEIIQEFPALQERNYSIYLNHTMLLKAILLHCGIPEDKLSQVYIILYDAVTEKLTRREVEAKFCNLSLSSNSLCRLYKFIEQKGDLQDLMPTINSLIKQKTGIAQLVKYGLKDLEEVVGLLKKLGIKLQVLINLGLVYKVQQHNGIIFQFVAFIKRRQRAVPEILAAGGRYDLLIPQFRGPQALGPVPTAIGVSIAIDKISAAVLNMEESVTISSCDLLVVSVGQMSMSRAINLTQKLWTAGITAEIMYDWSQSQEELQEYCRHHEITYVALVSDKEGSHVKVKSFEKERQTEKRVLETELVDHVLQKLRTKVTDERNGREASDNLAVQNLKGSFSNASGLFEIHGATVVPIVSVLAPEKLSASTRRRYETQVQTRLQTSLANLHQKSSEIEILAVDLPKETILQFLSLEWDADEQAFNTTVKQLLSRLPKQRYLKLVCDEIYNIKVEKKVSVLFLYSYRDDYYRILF

SMILES	pIC50 [1]	pIC50 (GCN2 biochemical IC50, 4 nM GCN2, 2 μM ATP, 80 nM GFP-eIF2α, 90 min RT, read-out: GCN2 activity)
CNC(=O)[C@]1(C)CC[C@@H](Nc2ncc3c(Br)nn(-c4ccc5nc(N6CCNCC6)ncc5c4)c3n2)C1	> 7.60	
COc1ccc(-n2nc(Br)c3cnc(N[C@@H]4CC[C@@H](C(=O)N5CCN(C)C(=O)C5)C4)nc32)cc1C#N [5-(3-bromo-6-(((1R,3R)-3-(4-methyl-3-oxo-piperazine-1-carbonyl)cyclopentyl)amino)-1H-pyrazolo[3,4-d]pyrimidin-1-yl)-2-methoxybenzonitrile]	6.30 to 6.70	
CNC(=O)[C@]1(C)CC[C@@H](Nc2ncc3c(Br)nn(-c4cc(Cl)cc(NC(=O)C5CNC5)c4)c3n2)C1 [N-[3-[3-bromo-6-[[(1R,3R)-3-methyl-3-(methylcarbamoyl)cyclopentyl]amino]pyrazolo[3,4-d]pyrimidin-1-yl]-5-chloro-phenyl]azetidine-3-carboxamide]	6.70 to 7.60	
CC1(C(=O)N2CCN3CCOC[C@@H]3C2)CC[C@@H](Nc2ncc3c(Br)nn(-c4cc(F)c5ncccc5c4)c3n2)C1 (stereo partly drawn) [[(9aS)-3,4,6,7,9,9a-hexahydro-1H-pyrazino [2,1-c][1,4]oxazin-8-yl]-[(3R)-3-[[3-bromo-1-(8-fluoro-6-quinolyl)pyrazolo[3,4-d]pyrimidin-6-yl]amino]-1-methyl-cyclopentyl]methanone]	6.70 to 7.60	
Cc1nnc(-c2ccc(-n3nc(Br)c4cnc(N[C@@H]5CCC(S(C)(=O)=O)C5)nc43)cc2)s1 (stereo partly drawn) [3-bromo-N-[(1R)-3-methylsulfonylcyclo-pentyl]-1-[4-(5-methyl-1,3,4-thiadiazol-2-yl)phenyl]pyrazolo[3,4-d]pyrimidin-6-amine]	6.70 to 7.60	
COCCNC(=O)[C@@H]1CC[C@@H](Nc2ncc3c(Br)nn(-c4ccc(-c5ccncc5)cc4)c3n2)C1 [(1R,3R)-3-((3-bromo-1-(4-(pyridin-4-yl)phenyl)-1H-pyrazolo[3,4-d]pyrimidin-6-yl)amino)-N-(2-methoxyethyl)cyclopentane-1-carboxamide]	6.00 to 6.30	
Cc1nnc(-c2ccc(-n3nc(Br)c4cnc(N[C@@H]5CC[C@@](C)(O)C5)nc43)cc2)s1 [Example 74, (1R,3R)-3-((3-bromo-1-(4-(5-methyl-1,3,4-thiadiazol-2-yl)phenyl)-1H-pyrazolo[3,4-d]pyrimidin-6-yl)amino)-1-methylcyclopentan-1-ol]		6.70 to 7.60

Results, then the compound that gave them:

pIC50 [1]	pIC50 (GCN2 biochemical IC50, 4 nM GCN2, 2 μM ATP, 80 nM GFP-eIF2α, 90 min RT, read-out: GCN2 activity)	SMILES
6.70 to 7.60		CNC(=O)[C@]1(C)CC[C@@H](Nc2ncc3c(Br)nn(-c4ccc5c(c4)SCC(=O)N5C)c3n2)C1 [(1R,3R)-3-[[3-bromo-1-(4-methyl-3-oxo-1,4-benzothiazin-7-yl)pyrazolo[3,4-d]pyrimidin-6-yl]amino]-N,1-dimethyl-cyclopentanecarboxamide]
> 7.60		CNC(=O)[C@]1(C)CC[C@@H](Nc2ncc3c(Br)nn(-c4ccc5ncc(CCO)cc5c4)c3n2)C1 [(1R,3R)-3-[[3-bromo-1-[3-(2-hydroxyethyl)-6-quinolyl]pyrazolo[3,4-d]pyrimidin-6-yl]amino]-N,1-dimethyl-cyclopentane-carboxamide]
6.70 to 7.60		CNC(=O)[C@]1(C)CC[C@@H](Nc2ncc3c(Br)nn(-c4ccc(-c5nnc(C)s5)c(OCC5CNC5)c4)c3n2)C1 [(1R,3R)-3-[[1-[3-(azetidin-3-ylmethoxy)-4-(5-methyl-1,3,4-thiadiazol-2-yl)phenyl]-3-bromo-pyrazolo[3,4-d]pyrimidin-6-yl]amino]-N,1-dimethyl-cyclopentane-carboxamide]
> 7.60		CNC(=O)[C@]1(C)CC[C@@H](Nc2ncc3c(Br)nn(-c4ccc(-c5nnc(CCOC)o5)cc4)c3n2)C1 [(1R,3R)-3-[[3-bromo-1-[4-[5-(2-methoxy-ethyl)-1,3,4-oxadiazol-2-yl]phenyl]pyrazolo [3,4-d]pyrimidin-6-yl]amino]-N,1-dimethyl-cyclopentanecarboxamide]
6.70 to 7.60		N#Cc1cc(-n2nc(Br)c3cnc(N[C@@H]4CC[C@@H](C(=O)N5CCCC5)C4)nc32)cc2cccnc12 [6-(3-bromo-6-(((1R,3R)-3-(pyrrolidine-1-carbonyl)cyclopentyl)amino)-1H-pyrazolo [3,4-d]pyrimidin-1-yl)quinoline-8-carbonitrile]
